The values that follow come from paper PMC9697446 (International Journal of Molecular Sciences, 2022).

Test [1] in a line: ABTS radical cation scavenging assay. The following applies: 1 h incubation, means ± SEM (n = 3); for IC50: 50% reduction of ABTS radical; for ABTS Scavenging Activity, TEAC Value: Trolox equivalent antioxidant capacity. How it is done:
The ABTS assay is based on the direct binding of a model ABTS radical cation (2,2′-azino-bis-(3-ethylbenzothiazoline-6-sulfonate), ABTS^•+) by antioxidants. The measurements were performed as previously described in detail.
The radical scavenging activity was expressed as TEAC values (Trolox equivalent antioxidant capacity) and determined as the ratio between the slopes obtained from the linear correlation of the ABTS radical absorbance with the concentrations of the test compounds and Trolox.
The radical scavenging activity of the compounds was assessed using an ABTS radical decolorization assay. The procedure followed the reported protocol with minor modifications. ABTS (2,2ʹ-azino-bis-(3-ethylbenzothiazoline-6-sulfonic acid) diammonium salt) was purchased from TCI (Tokyo, Japan), while potassium persulfate (di-potassium peroxodisulfate), Trolox (6-hydroxy-2,5,7,8-tetramethylchroman-2-carboxylic acid), catechol, and DMSO were received from Sigma-Aldrich Chemical Co. (St. Louis, MO, USA). The ethanol was HPLC grade. Aqueous solutions were prepared using deionized water.
Trolox was used as the standard reference compound. Catechol was used as the positive control. All test and reference compounds were dissolved in DMSO. The final concentration of DMSO in the reaction mixture was 4% (v/v).
The solution of ABTS radical cation (ABTS^•+) was produced by mixing a 7 mM ABTS stock solution with a 2.45 mM aqueous solution of potassium persulfate in equal quantities and allowing them to react for 12–16 h at room temperature in the dark. At the time of activity determination, the ABTS^•+ solution was diluted with ethanol to adjust it to an absorbance value of about 0.80 ± 0.05 at 734 nm. A fresh working solution of ABTS^•+ was prepared for each assay.
The radical scavenging capacity of the compounds was analyzed by mixing 10 μL of test compound with 240 μL of ABTS^•+ working solution. The reduction in absorbance was measured spectrophotometrically at 734 nm using an xMark microplate UV/VIS spectrophotometer (Bio-Rad, Hercules, CA, USA). The reaction was monitored for an hour at 10 min intervals. Data were given for 1 h of incubation of compounds with ABTS^•+. EtOH blanks were run in each assay. The results were obtained from three replicates of each sample and three independent experiments.
The antioxidant capacity as a Trolox equivalent (TEAC values) was determined as the ratio between the slopes obtained from the linear correlation of concentrations of test compounds and Trolox with absorbance of ABTS radical.

Test [2] in a line: Oxygen radical absorbance capacity assay (ORAC-FL). The following applies: Trolox equivalent, Trolox = 1; means ± SEM (n = 3).
From the text: The method is based on the measurement of the fluorescence intensity characterizing the degree of destruction of the fluorescence probe under the action of peroxyl radicals.
The peroxyl radical scavenging capacity of the test compounds was characterized in terms of the Trolox equivalent (TE), which is equal to the ratio of the Trolox concentration to the concentration of a test compound when they show equal fluorescence intensities in the assay. The peroxyl radical scavenging capacity of Trolox was set as 1 [67, 68].
2,2´-Azobis(amidinopropane) dihydrochloride (AAPH), (±)-6-hydroxy-2,5,7,8-tetramethylchroman-2-carboxylic acid (Trolox), and fluorescein (FL) were purchased from Sigma-Aldrich. The reaction was carried out at 37 °C in 75 mM K,Na phosphate buffer (pH 7.4), and the final reaction mixture was 200 µL. The test compounds and the Trolox standard were dissolved in DMSO to 10 mM and further diluted in a 75 mM K,Na phosphate buffer (pH 7.4). The final concentrations were 0.1–1 µM for the test compounds and 1–6 µM for the Trolox. The blank was composed of 20 µL of a 75 mM K,Na phosphate buffer (pH 7.4) containing 20% (v/v) DMSO, 120 µL of FL and 60 µL of AAPH, and it was added in each assay. The antioxidant (20 µL) and FL (120 µL, final concentration: 70 nM) solutions were placed in a black 96-well microplate and were preincubated for 15 min at 37 °C. A solution of AAPH (60 µL, final concentration: 12 mM) was then added rapidly using a multichannel pipette. The microplate was immediately placed in the reader, and the fluorescence was recorded every minute for 100 min. The microplate was automatically shaken prior to each reading. The Trolox standard curve was also obtained in each assay. All reactions were carried out in triplicate, and at least three different assays were performed for each sample.
The antioxidant curves (fluorescence vs. time) were first normalized to the curve of the blank (without the antioxidant) corresponding to the same assay, and the area under the fluorescence decay curve (AUC) was calculated. The net AUC corresponding to a sample was calculated by subtracting the AUC corresponding to the blank. Regression equations were calculated by plotting the net AUC against the antioxidant concentration. The ORAC Tolox equivalent value (TE) was obtained by dividing the slope of the latter curve by the slope of the Trolox curve obtained in the same assay. The ability of Trolox to scavenge the peroxyl radical was equal to 1 [64, 65]. […] The data are expressed as means ± SEM.
A further test has as its target T1, equine serum BChE (Equus caballus, UniProt P81908).
T1 construct: the equine serum BChE, and the porcine liver CES; purchased Sigma-Aldrich; host or cells: equine serum
Nature of the test: biochemical. The settings on record: IC50 ± SEM, n = 3. How it is done:
(§1) The esterase profile was estimated using the human erythrocyteAChE, the equine serum BChE, and the porcine liver CES.
(§2) Human erythrocyte AChE, equine serum BChE, porcine liver CES, acetylthiocholine iodide (ATCh), butyrylthiocholine iodide (BTCh), 5,5′-dithio-bis-(2-nitrobenzoic acid) (DTNB), 4-nitrophenol acetate (4-NPA), and BNPP were purchased from Sigma-Aldrich (St. Louis, MO, USA).
(§3) AChE and BChE activities were measured via the Ellman method. The assay solution consisted of 0.1 M K/Na phosphate buffer pH 7.5, 25 °C with the addition of 0.33 mM DTNB, 0.02 unit/mL of AChE or BChE and 1 mM of substrate (ATCh or BTCh, respectively). The assays were carried out with a reagent blank containing all components (except AChE orBChE) in order to account for the non-enzymatic hydrolysis of the substrate. In addition, an enzyme blank was included that contained all components except substrate to account for non-substrate sulfhydryl groups.
(§4) The test compounds were dissolved in DMSO, and the incubation mixture contained 2% (v/v) of the solvent. Enzyme inhibition was first assessed at a single concentration of 20 µM for each compound after a 5 min incubation at 25 °C in three separate experiments. […] The test compounds were added to the assay solution and preincubated at 25 °C with the enzymes for 5 min, followed by the addition of substrate. A parallel control was made for the assay solution with no inhibitor. Measurements were performed with a FLUOStar Optima microplate reader (BMG Labtech, Ortenberg, Germany). Each experiment was performed in triplicate. The results were expressed as the mean ± SEM. The reaction rates in the presence and absence of the inhibitor were compared, and the percent of residual enzyme activity due to the presence of test compounds was calculated.

The target in the next test is T2, human erythrocyte AChE (Homo sapiens, UniProt P22303).
T2 construct: The esterase profile was estimated using the human erythrocyteAChE; purchased Sigma-Aldrich; host or cells: human erythrocytes
In words: biochemical. The settings on record: IC50 ± SEM, n = 3. How it is done:
as §1, §2, §3, §4

A further test concerns porcine liver CES. In words: CES inhibition (4-nitrophenyl acetate hydrolysis).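 Note: values are percent inhibition of CES activity not residual activity.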 The following applies: ± SEM, n = 3. In kind it is biochemical. How it is done:
as §1, §2
The assay solution consisted of 0.1 M K/Na phosphate buffer pH 8.0, 25 °C, with the addition of 1 mM 4-nitrophenyl acetate and 0.02 unit/mL of CES. The assays were carried out with a blank containing all components, except CES.
as §4

A further test has as its target T3, EeAChE (Electrophorus electricus, UniProt O42275).
T3 construct: purchased Sigma-Aldrich type VI-S
Nature of the test: biochemical. The settings on record: means ± SEM (n = 3); read-out: EeAChE Inhibition, IC50. How it is done: We selected AChE from electric eels (Electrophorus electricus) for consistency with our other reports and because of its purity, specific activity, and lower cost compared to human AChE [64].
as §3, §4
(§5) PIand donepezil were purchased from Sigma-Aldrich. […] As the source of the enzyme, electric eel (Elecrophorus electricus) AChE (EeAChE, type VI-S, lyophilized powder, Sigma-Aldrich, Saint Louis, MO, USA) was used. The applicability of this enzyme was shown earlier

For a further test, the target named is T4, EeAChE PAS (Electrophorus electricus, UniProt O42275).
T4 construct: purchased Sigma-Aldrich type VI-S
In words: biochemical. In kind it is binding. The following applies: EeAChE 7 µM, PI 8 µM, means ± SEM (n = 3); for inhibition at 3 µM: compound 3 µM, read-out: PI Displacement, 3 µM; for inhibition at 20 µM: compound 20 µM, read-out: PI Displacement, 20 µM. How it is done: as §5
To determine the percentage of displacement of PI from the EeAChE PAS, EeAChE (with a final concentration of 7 μM) was incubated with the test compound at a concentration of 3 and 20 μM in 1 mM Tris-HCl buffer pH 8.0, 25 °C for 15 min. Next, PIsolution (with a final concentration of 8 μM) was added, the samples were incubated for 15 min, and the fluorescence spectrum (530 nm (exc.) and 600 nm (emiss.)) was taken. Donepezil and decamethonium were used as reference compounds. The blank contained PI of the same concentration in 1 mM Tris-HCl buffer pH 8.0. The measurements were carried out in triplicate on a FLUOStar Optima microplate reader).
The percentage of displacement of PIfrom the peripheral anionic site of AChE was calculated using the following formula:% Displacement = 100 − (IFAChE+Propidium+inhibitor/IFAChE+Propidium) × 100,(1) where IFAChE+Propidium is the fluorescence intensity of the propidium associated with AChE in the absence of the test compound (taken as 100%) and IFAChE+Propidium+inhibitor is the fluorescence intensity of the propidium associated with AChE in the presence of the test compound.

T4 sequence (O42275 24-633): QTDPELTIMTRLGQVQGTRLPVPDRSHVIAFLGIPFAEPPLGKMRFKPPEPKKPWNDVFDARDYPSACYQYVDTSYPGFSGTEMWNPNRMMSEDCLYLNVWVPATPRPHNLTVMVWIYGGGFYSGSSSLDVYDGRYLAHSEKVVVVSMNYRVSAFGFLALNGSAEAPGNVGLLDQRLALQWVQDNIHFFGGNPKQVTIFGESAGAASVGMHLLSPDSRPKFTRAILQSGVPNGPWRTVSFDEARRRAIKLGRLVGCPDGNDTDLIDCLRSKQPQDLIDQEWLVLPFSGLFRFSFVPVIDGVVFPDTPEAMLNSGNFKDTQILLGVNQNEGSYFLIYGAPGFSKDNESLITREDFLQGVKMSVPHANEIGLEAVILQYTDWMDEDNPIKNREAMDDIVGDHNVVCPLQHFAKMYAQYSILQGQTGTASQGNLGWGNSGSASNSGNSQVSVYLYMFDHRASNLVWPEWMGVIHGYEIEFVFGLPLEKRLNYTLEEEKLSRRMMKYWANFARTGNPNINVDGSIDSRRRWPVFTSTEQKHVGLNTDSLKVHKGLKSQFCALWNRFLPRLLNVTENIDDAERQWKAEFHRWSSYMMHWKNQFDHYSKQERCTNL
T2 sequence (P22303 32-617 isoform P22303-2 limits assumed): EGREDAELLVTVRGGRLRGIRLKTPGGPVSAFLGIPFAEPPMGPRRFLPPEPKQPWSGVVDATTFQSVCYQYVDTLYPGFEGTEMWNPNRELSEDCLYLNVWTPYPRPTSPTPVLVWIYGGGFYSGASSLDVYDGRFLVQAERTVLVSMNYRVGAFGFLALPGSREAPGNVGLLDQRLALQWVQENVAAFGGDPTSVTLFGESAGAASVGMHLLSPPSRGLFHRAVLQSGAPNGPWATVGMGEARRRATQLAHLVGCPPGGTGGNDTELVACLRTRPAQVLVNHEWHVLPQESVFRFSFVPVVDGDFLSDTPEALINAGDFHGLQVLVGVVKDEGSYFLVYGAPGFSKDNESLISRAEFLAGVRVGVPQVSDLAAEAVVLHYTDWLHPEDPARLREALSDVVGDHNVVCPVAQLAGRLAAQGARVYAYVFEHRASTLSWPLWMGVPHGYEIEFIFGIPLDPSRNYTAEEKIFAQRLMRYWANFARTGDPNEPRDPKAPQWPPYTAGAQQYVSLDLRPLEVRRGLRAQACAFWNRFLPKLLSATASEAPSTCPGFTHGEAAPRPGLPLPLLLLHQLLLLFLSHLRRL
T3 sequence (O42275 24-633): as the sequence (O42275 24-633) above
T1 sequence (P81908 whole entry): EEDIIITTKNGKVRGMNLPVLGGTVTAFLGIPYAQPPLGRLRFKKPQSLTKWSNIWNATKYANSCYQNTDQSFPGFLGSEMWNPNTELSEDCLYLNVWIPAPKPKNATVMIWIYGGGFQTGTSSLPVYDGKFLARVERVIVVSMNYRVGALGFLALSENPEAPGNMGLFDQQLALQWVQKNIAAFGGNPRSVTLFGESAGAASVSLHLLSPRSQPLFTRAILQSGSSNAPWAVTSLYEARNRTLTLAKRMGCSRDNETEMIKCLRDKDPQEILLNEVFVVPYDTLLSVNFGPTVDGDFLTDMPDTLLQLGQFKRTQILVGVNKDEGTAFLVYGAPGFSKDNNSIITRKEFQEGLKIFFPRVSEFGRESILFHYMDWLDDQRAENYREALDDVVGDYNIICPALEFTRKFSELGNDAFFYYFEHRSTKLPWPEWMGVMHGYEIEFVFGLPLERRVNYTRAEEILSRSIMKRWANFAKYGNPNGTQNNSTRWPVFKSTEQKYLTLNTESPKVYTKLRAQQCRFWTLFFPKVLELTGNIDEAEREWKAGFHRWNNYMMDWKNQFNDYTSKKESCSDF

As usually defined, the IC50 is the concentration at which inhibition is half-maximal. For `Oc1ccccc1O` [Catechol, catechol, reference compound], in test [1], the 50% inhibitory concentration (IC50) stood at 16.7 ± 1.2 µM and the “ABTS Scavenging Activity, TEAC Value” is recorded as 1.20 ± 0.11. In addition, the “ORAC, TE Value” in test [2] was 6.6 ± 0.2.

Take `CC1CCc2c(c3cc(C(F)(F)F)ccc3n2CCC(=O)N2c3ccc(N(C)C)cc3Sc3cc(N(C)C)ccc32)C1` (stereo not shown) [Compound 4g]: the IC50 was found to be 20.3 ± 0.21 µM against equine serum BChE, 3.56 ± 0.09 µM at human erythrocyte AChE, 0.8 ± 0.05 µM on EeAChE and 30.8 ± 2.9 µM in test [1]. In addition, the “CES inhibition at 20 µM” value in the test on porcine liver CES was found to be 1.4 ± 0.2%. The inhibition at 3 µM on EeAChE PAS was found to be 20.9 ± 1.3%. On EeAChE PAS, the inhibition at 20 µM was 32.8 ± 0.7%. Also, the “ABTS Scavenging Activity, TEAC Value” in test [1] came out at 0.70 ± 0.04. In addition, the “ORAC, TE Value” in test [2] was determined as 6.5 ± 0.1.

Consider `CN(C)c1ccc2c(c1)Sc1cc(N(C)C)ccc1N2C(=O)CCn1c2c(c3cc(OC(F)(F)F)ccc31)CCCCC2` [Compound 4l], for which the IC50 against equine serum BChE worked out at 42.2 ± 2.93 µM; against human erythrocyte AChE, 15 ± 1.12 µM; at EeAChE, 3.4 ± 0.21 µM; in test [1], 20.7 ± 1.7 µM. Besides, the “CES inhibition at 20 µM” value in the test on porcine liver CES was determined as 7.6 ± 0.8%. Further, the inhibition at 3 µM at EeAChE PAS amounted to 14.9 ± 0.1%. In addition, the inhibition at 20 µM at EeAChE PAS is 17 ± 1.2%. In addition, in test [1], the “ABTS Scavenging Activity, TEAC Value” was 0.98 ± 0.09. In addition, the “ORAC, TE Value” in test [2] is listed as 8.4 ± 0.8.

As to `Cc1c(C)c2c(c(C)c1O)CCC(C)(C(=O)O)O2` (stereo not shown) [Trolox, 6-hydroxy-2,5,7,8-tetramethylchroman-2-carboxylic acid, reference compound], in test [1], the IC50 came to 20.4 ± 1.7 µM and the “ABTS Scavenging Activity, TEAC Value” came out at 1.00. Moreover, the “ORAC, TE Value” in test [2] came out at 1.00.

As for `c1ccc2c(c1)[nH]c1ccccc12` [carbazole, reference compound], in the test on porcine liver CES, the “CES inhibition at 20 µM” value is on record as 9.4 ± 1.0%.
